From patent publication US20170015555A1, “LONG-TERM PRESERVATION AND NOVEL APPLICATION OF CHLOROUS ACID AQUEOUS SOLUTION FORMULATION” (priority 2013, published 2017)

Experiments:
[1] = tested on: Microbes of the genus Salmonella: Salmonella Enteritidis IF03313; assay: Sterilizing effect on floor surface after wiping off imitation vomit, rubber mattress; type: cell-based; conditions: 1000 ppm available chlorine
Description: (§1) 1) Chlorous acid aqueous solution formulation (see Example 1: Table 11) Treatment sheet (material: 100% cotton): (about 27×40 cm) *Impregnated at a ratio of weight of treatment sheet (g): amount of liquid (ml)=1:3 2) Imitation vomit Miso solution: adjusted to pH of 2 with hydrochloric acid 3) Test Microbes that were Used E. coli: Escherichia coli IF03927 Staphylococcus aureus: Staphylococcus aureus IF0 12732 Thermoduric Microbes (Bacillus cereus): Bacillus cereus NBRC15305 Microbes of the genus Salmonella: Salmonella Enteritidis IF03313 Enterohemorrhagic Escherichia coli O157: Escherichia coli O157 Enterohemorrhagic Escherichia coli O111: Escherichia coli O111 Enterohemorrhagic Escherichia coli O26: Escherichia coli O26
(§2) (1) Imitation vomit was spread in an area about the size of an A4 sheet. (2) 5 agent solution-containing treatment sheets were laid thereon. (3) The imitation vomit was wiped off. (4) A cotton swab was soaked with sterile saline. A portion where imitation vomit was spread was scrubbed with the cotton swab to collect microbes remaining on the floor. After suspending in saline, the solution was spread on a petri dish and cultured. The number of each of the microbes was measured. (5) Test operations 3 and 4 were repeated a total of 7 times (repeated until the imitation vomit could be removed completely).

[2] = tested on: E. coli: Escherichia coli IF03927; assay: as above; type: cell-based; conditions: 1000 ppm available chlorine
Description: as §1, §2

[3] = tested on: Staphylococcus aureus IF0 12732; assay: as above; type: cell-based; conditions: 1000 ppm available chlorine
Description: as §1, §2

[4] = tested on: Bacillus cereus NBRC15305; assay: as above; type: cell-based; conditions: 1000 ppm available chlorine
Description: as §1, §2

[5] = tested on: Enterohemorrhagic Escherichia coli O26; assay: as above; type: cell-based; conditions: 1000 ppm available chlorine
Description: as §1, §2

[6] = tested on: Enterohemorrhagic Escherichia coli O157; assay: as above; type: cell-based; conditions: 1000 ppm available chlorine
Description: as §1, §2

[7] = tested on: Enterohemorrhagic Escherichia coli O111; assay: as above; type: cell-based
Description: as §1, §2

[8] = Deodorizing effect (chemical deodorization, gas detector tube); conditions: spray 20 cc
Description: In order to evaluate tests on deodorizing effects, the present Example examined deodorizing effects by using standards regarding air freshening and deodorization ([II]-2 Method of Testing Deodorizing Efficacy (Chemical Deodorization)) set forth by the Air Fresheners and Deodorizers Conference (http://www.houkou.gr.jp/) as the efficacy testing method, which is adopted by Japan Food Research Laboratories.
Ammonium odor: Ammonium Standard Solution II (Wako Pure Chemical Industries, for testing malodorous substances) Amine odor: methyl mercaptan standard solution (Wako Pure Chemical Industries, for testing malodorous substances) Sulfur odor: hydrogen sulfide (self-made, used hydrogen sulfide that was generated by adding sulfuric acid to zinc sulfide)
Gas detector tube made by GASTEC Corporation Ammonium odor: Detector tube ammonium 3 L made by GASTEC Corporation Amino odor: Detector tube methyl mercaptan 71 made by GASTEC Corporation Sulfur odor: Detector tube hydrogen sulfide 4 LL made by GASTEC Corporation
Tests were conducted in compliance with ([II]-2 Method of Testing Deodorizing Efficacy (Chemical Deodorization)) set forth by the Air Fresheners and Deodorizers Conference.
The tests were carried out by static culture method, using a commercially-available airbag with a spigot having a volume of about 10 L as test containers. The volume of airbags was appropriately changed in accordance with the size of the product.
The bags were filled with odorless air. Malodor concentrations were measured over time at room temperature (about 20° C.). (3 points or higher, detection tube method (FIG. 16), measured by an instrument analysis method or olfactory measurement method. When decrease in the blank was observed, the decrease was suitably corrected. When measuring by olfactory measuring method, the airbag spigot was opened for direct sniffing, or gas was transferred to an odor bag while wearing a mask to perform olfactory measurement in an autonomic respiration form. Measured air was not returned to the source).

[9] = 1000 ppm available chlorine, stored at 25° C. Day 0
[10] = 1000 ppm, stored at 25° C. Day 7

**Q.** Which “microbes remaining, wiped 1 Time” value ([1]; stored at 25° C. Day 0) does the source give for `OCl` [Sodium Hypochlorite, sodium hypochlorite] here?
**A.** <10

**Q.** What about the “microbes remaining, wiped 2 Times” value ([1]; stored at 25° C. Day 0) of the same compound?
**A.** <10

**Q.** What about the “microbes remaining, wiped 3 Times” value ([1]; stored at 25° C. Day 0) of the same compound?
**A.** <10

**Q.** And the “microbes remaining, wiped 1 Time” value ([1]; stored at 25° C. Day 7)?
**A.** 1.1 × 10^3

**Q.** And the “microbes remaining, wiped 2 Times” value ([1]; stored at 25° C. Day 7)?
**A.** 3.6 × 10^2

**Q.** What about the “Microbe count on floor, wiped 1 Time” value ([2]; Day 0 at 25° C.) of the same compound?
**A.** <10

**Q.** What about the “Microbe count on floor, wiped 2 Times” value ([2]; Day 0 at 25° C.) of the same compound?
**A.** <10

**Q.** What about the “Microbe count on floor, wiped 3 Times” value ([2]; Day 0 at 25° C.) of the same compound?
**A.** <10

**Q.** And the “Microbe count on floor, wiped 1 Time” value ([2]; Day 7 at 25° C.)?
**A.** 2.3 × 10^4

**Q.** And the “Microbe count on floor, wiped 2 Times” value ([2]; Day 7 at 25° C.)?
**A.** 7.8 × 10^3

**Q.** And the “Microbe count on floor, wiped 3 Times” value ([2]; Day 7 at 25° C.)?
**A.** 2.1 × 10^3

**Q.** What about the “Microbe count on floor, wiped 1 Time” value ([3]; Day 0 at 25° C.) of the same compound?
**A.** <10

**Q.** And the “Microbe count on floor, wiped 2 Times” value ([3]; Day 0 at 25° C.)?
**A.** <10

**Q.** What about the “Microbe count on floor, wiped 3 Times” value ([3]; Day 0 at 25° C.) of the same compound?
**A.** <10

**Q.** What about the “Microbe count on floor, wiped 1 Time” value ([3]; Day 7 at 25° C.) of the same compound?
**A.** 8.7 × 10^6

**Q.** What about the “Microbe count on floor, wiped 2 Times” value ([3]; Day 7 at 25° C.) of the same compound?
**A.** 7.3 × 10^3

**Q.** What about the “Microbe count on floor, wiped 3 Times” value ([3]; Day 7 at 25° C.) of the same compound?
**A.** 3.3 × 10^3

**Q.** And the “microbes remaining, wiped 1 Time” value ([4]; stored at 25° C. Day 0)?
**A.** <10

**Q.** What about the “microbes remaining, wiped 2 Times” value ([4]; stored at 25° C. Day 0) of the same compound?
**A.** <10

**Q.** And the “microbes remaining, wiped 3 Times” value ([4]; stored at 25° C. Day 0)?
**A.** <10

**Q.** And the “microbes remaining, wiped 1 Time” value ([4]; stored at 25° C. Day 7)?
**A.** 2.1 × 10^3

**Q.** What about the “microbes remaining, wiped 2 Times” value ([4]; stored at 25° C. Day 7) of the same compound?
**A.** 6.5 × 10^2

**Q.** What about the “microbes remaining, wiped 3 Times” value ([4]; stored at 25° C. Day 7) of the same compound?
**A.** 1.8 × 10^2

**Q.** And the “microbes remaining, wiped 1 Time” value ([5]; stored at 25° C. Day 0)?
**A.** <10

**Q.** What about the “microbes remaining, wiped 2 Times” value ([5]; stored at 25° C. Day 0) of the same compound?
**A.** <10

**Q.** And the “microbes remaining, wiped 3 Times” value ([5]; stored at 25° C. Day 0)?
**A.** <10

**Q.** What about the “microbes remaining, wiped 1 Time” value ([5]; stored at 25° C. Day 7) of the same compound?
**A.** 3.2 × 10^3

**Q.** And the “microbes remaining, wiped 2 Times” value ([5]; stored at 25° C. Day 7)?
**A.** 1.0 × 10^3

**Q.** What about the “microbes remaining, wiped 3 Times” value ([5]; stored at 25° C. Day 7) of the same compound?
**A.** 3.0 × 10^2

**Q.** What about the “microbes remaining, wiped 1 Time” value ([6]; stored at 25° C. Day 0) of the same compound?
**A.** <10

**Q.** What about the “microbes remaining, wiped 2 Times” value ([6]; stored at 25° C. Day 0) of the same compound?
**A.** <10

**Q.** What about the “microbes remaining, wiped 3 Times” value ([6]; stored at 25° C. Day 0) of the same compound?
**A.** <10

**Q.** And the “microbes remaining, wiped 1 Time” value ([6]; stored at 25° C. Day 7)?
**A.** 4.2 × 10^3

**Q.** And the “microbes remaining, wiped 2 Times” value ([6]; stored at 25° C. Day 7)?
**A.** 1.2 × 10^3

**Q.** What about the “microbes remaining, wiped 3 Times” value ([6]; stored at 25° C. Day 7) of the same compound?
**A.** 1.1 × 10^2

**Q.** And the “microbes remaining, wiped 1 Time” value [7, 9]?
**A.** <10

**Q.** And the “microbes remaining, wiped 2 Times” value [7, 9]?
**A.** <10

**Q.** And the “microbes remaining, wiped 3 Times” value [7, 9]?
**A.** <10

**Q.** What about the “microbes remaining, wiped 1 Time” value [7, 10] of the same compound?
**A.** 1.5 × 10^3

**Q.** What about the “microbes remaining, wiped 2 Times” value [7, 10] of the same compound?
**A.** 1.0 × 10^3

**Q.** What about the “microbes remaining, wiped 3 Times” value [7, 10] of the same compound?
**A.** 2.6 × 10^2

**Q.** What about the “microbes remaining, wiped 7 Times” value [7, 10] of the same compound?
**A.** <10

**Q.** And the “residual concentration of hydrogen sulfide, after correction (Control = 100)” value (“residual concentration … (Control = 100)” below) ([8]; Table 57, 0 h after spraying)?
**A.** 0

**Q.** What about the “residual concentration of hydrogen sulfide, before correction” value (shortened to “residual concentration … before correction”) ([8]; Table 57, 0 h after spraying) of the same compound?
**A.** 0 ppm

**Q.** What about the “residual concentration … (Control = 100)” value ([8]; Table 57, 3 h after spraying) of the same compound?
**A.** 0

**Q.** And the “residual concentration … before correction” value ([8]; Table 57, 3 h after spraying)?
**A.** 0 ppm

**Q.** And the “residual concentration … (Control = 100)” value ([8]; Table 57, 6 h after spraying)?
**A.** 0

**Q.** What about the “residual concentration … before correction” value ([8]; Table 57, 6 h after spraying) of the same compound?
**A.** 0 ppm

**Q.** And the “residual concentration … (Control = 100)” value ([8]; Table 57, 9 h after spraying)?
**A.** 0

**Q.** And the “residual concentration … before correction” value ([8]; Table 57, 9 h after spraying)?
**A.** 0 ppm

**Q.** What about the “residual concentration … (Control = 100)” value ([8]; Table 57, 24 h after spraying) of the same compound?
**A.** 0

**Q.** And the “residual concentration … before correction” value ([8]; Table 57, 24 h after spraying)?
**A.** 0 ppm

**Q.** What about the “residual concentration … (Control = 100)” value ([8]; Table 57, before spraying) of the same compound?
**A.** 100

**Q.** And the “residual concentration … before correction” value ([8]; Table 57, before spraying)?
**A.** 40 ppm

**Q.** What about the “residual concentration … (Control = 100)” value ([8]; Table 58, 0 h after spraying) of the same compound?
**A.** 0

**Q.** And the “residual concentration … before correction” value ([8]; Table 58, 0 h after spraying)?
**A.** 0 ppm

**Q.** What about the “residual concentration … (Control = 100)” value ([8]; Table 58, 3 h after spraying) of the same compound?
**A.** 0

**Q.** What about the “residual concentration … before correction” value ([8]; Table 58, 3 h after spraying) of the same compound?
**A.** 0 ppm

**Q.** What about the “residual concentration … (Control = 100)” value ([8]; Table 58, 6 h after spraying) of the same compound?
**A.** 0

**Q.** And the “residual concentration … before correction” value ([8]; Table 58, 6 h after spraying)?
**A.** 0 ppm

**Q.** And the “residual concentration … (Control = 100)” value ([8]; Table 58, 9 h after spraying)?
**A.** 0

**Q.** And the “residual concentration … before correction” value ([8]; Table 58, 9 h after spraying)?
**A.** 0 ppm

**Q.** What about the “residual concentration … (Control = 100)” value ([8]; Table 58, 24 h after spraying) of the same compound?
**A.** 0

**Q.** What about the “residual concentration … before correction” value ([8]; Table 58, 24 h after spraying) of the same compound?
**A.** 0 ppm

**Q.** And the “residual concentration … (Control = 100)” value ([8]; Table 58, before spraying)?
**A.** 100

**Q.** What about the “residual concentration … before correction” value ([8]; Table 58, before spraying) of the same compound?
**A.** 50 ppm
